For assay [1], the system named is endothelial tube formation in co-cultures of ECFCs and ADSCs treated with VEGF. Briefly: cells. The format is cell-based, human.
The subject of a further assay is HeLa cells. Briefly: cells. The format is cell-based. To be noted: for Hela CellCycMod PI 2N IC50/EC50: assay number 14; for Hela CellCycMod PI S Phase IC50/EC50: assay number 15; for Hela CellCycMod PI 4N IC50/EC50: assay number 16; for Hela CellCycMod PI MI IC50/EC50: assay number 17; for Hela CellCycMod PI Cell Number IC50/EC50: assay number 18.
The test system of assay [2] is ECFC/ADSC co-culture cell nuclei number.
Another assay deals with T1, hFLT3 (Homo sapiens, UniProt P36888).
T1 construct: purchased Cerep (LANCE kinase assay platform, contract assay)
The assay is described as follows: Cerep LANCE kinase assay hFLT3 (S1 assay 35). The format is biochemical. To be noted: assay number 35. A general note: TR-FRET usually uses a lanthanide donor and a delayed reading to cut background.

The target of another assay is T2, hJAK2 (Homo sapiens, UniProt O60674).
T2 construct: purchased Cerep (LANCE kinase assay platform, contract assay)
The assay is described as follows: Cerep LANCE kinase assay hJAK2 (S1 assay 33). The format is biochemical. Conditions: assay number 33.

Assay [3] relates to nuclear β-catenin in C2C12 cells. Briefly: cells. Type of assay: cell-based. To be noted: assay number 5; concentration response.
In a further assay the target is T3, hGSK3b (Homo sapiens, UniProt P49841).
T3 construct: purchased Cerep (LANCE kinase assay platform, contract assay)
The assay is described as follows: Cerep LANCE kinase assay hGSK3b (S1 assay 34). Conditions: assay number 34. Type of assay: biochemical.

Another assay concerns the target T4, hKDR (Homo sapiens, UniProt P35968).
T4 construct: purchased Cerep (LANCE kinase assay platform, contract assay)
The assay is described as follows: Cerep LANCE kinase assay hKDR (S1 assay 32). Type of assay: biochemical. Conditions: assay number 32.

In another assay the target is T5, hp70S6K1 (RPS6KB1) (Homo sapiens, UniProt P23443).
T5 construct: purchased Cerep (LANCE kinase assay platform, contract assay)
The assay is described as follows: Cerep LANCE kinase assay hp70S6K1 (S1 assay 31). Type of assay: biochemical. To be noted: assay number 31.

Assay [4] has as its system alkaline phosphatase (ALP) activity in C2C12 cells. The format is cell-based. To be noted: assay number 6; concentration response.

Bounds are passed on as bounds.

T2 sequence (O60674 whole entry): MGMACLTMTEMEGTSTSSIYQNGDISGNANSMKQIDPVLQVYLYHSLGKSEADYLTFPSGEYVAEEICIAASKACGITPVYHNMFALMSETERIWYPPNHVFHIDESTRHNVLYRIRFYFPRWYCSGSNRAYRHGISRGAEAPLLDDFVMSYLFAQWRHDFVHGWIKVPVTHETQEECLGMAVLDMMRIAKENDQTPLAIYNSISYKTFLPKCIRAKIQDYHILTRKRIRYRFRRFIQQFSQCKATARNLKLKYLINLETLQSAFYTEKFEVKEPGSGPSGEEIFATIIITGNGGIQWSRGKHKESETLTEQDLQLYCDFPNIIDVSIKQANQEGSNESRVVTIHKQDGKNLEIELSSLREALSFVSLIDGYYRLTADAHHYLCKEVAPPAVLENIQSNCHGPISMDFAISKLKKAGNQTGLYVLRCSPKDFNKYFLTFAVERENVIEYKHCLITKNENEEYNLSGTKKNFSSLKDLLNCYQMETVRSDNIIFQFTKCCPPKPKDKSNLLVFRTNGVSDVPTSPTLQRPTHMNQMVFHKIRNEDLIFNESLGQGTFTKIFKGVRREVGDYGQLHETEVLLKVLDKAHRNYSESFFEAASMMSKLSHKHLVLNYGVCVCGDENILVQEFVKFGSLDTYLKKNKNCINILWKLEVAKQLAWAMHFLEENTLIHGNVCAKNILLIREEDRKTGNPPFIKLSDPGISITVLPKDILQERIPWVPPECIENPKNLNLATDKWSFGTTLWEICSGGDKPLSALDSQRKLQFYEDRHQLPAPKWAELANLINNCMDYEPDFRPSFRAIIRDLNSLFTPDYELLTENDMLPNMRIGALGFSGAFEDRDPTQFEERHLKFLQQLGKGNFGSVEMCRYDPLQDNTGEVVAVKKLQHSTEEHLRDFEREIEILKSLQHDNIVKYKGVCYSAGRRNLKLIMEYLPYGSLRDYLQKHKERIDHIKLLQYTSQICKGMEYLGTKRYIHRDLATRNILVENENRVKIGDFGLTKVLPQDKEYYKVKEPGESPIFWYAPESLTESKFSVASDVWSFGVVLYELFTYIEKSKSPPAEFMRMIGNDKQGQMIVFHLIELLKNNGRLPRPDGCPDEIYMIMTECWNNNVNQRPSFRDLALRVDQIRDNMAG
T5 sequence (P23443 whole entry): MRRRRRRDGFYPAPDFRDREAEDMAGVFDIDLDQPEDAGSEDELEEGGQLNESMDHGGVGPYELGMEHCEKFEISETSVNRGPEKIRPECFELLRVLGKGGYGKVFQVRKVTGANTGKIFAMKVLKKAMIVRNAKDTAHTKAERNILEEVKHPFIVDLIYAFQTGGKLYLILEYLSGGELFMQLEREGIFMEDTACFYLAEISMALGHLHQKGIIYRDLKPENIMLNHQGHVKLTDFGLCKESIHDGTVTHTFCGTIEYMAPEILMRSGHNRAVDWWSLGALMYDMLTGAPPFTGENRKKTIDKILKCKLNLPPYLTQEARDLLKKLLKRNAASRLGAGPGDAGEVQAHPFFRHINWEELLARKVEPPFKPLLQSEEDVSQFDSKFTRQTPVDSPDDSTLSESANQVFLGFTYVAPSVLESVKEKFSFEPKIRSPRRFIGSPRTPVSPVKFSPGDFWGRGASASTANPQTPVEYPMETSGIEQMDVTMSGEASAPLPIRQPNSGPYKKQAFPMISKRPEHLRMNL
T1 sequence (P36888 27-993): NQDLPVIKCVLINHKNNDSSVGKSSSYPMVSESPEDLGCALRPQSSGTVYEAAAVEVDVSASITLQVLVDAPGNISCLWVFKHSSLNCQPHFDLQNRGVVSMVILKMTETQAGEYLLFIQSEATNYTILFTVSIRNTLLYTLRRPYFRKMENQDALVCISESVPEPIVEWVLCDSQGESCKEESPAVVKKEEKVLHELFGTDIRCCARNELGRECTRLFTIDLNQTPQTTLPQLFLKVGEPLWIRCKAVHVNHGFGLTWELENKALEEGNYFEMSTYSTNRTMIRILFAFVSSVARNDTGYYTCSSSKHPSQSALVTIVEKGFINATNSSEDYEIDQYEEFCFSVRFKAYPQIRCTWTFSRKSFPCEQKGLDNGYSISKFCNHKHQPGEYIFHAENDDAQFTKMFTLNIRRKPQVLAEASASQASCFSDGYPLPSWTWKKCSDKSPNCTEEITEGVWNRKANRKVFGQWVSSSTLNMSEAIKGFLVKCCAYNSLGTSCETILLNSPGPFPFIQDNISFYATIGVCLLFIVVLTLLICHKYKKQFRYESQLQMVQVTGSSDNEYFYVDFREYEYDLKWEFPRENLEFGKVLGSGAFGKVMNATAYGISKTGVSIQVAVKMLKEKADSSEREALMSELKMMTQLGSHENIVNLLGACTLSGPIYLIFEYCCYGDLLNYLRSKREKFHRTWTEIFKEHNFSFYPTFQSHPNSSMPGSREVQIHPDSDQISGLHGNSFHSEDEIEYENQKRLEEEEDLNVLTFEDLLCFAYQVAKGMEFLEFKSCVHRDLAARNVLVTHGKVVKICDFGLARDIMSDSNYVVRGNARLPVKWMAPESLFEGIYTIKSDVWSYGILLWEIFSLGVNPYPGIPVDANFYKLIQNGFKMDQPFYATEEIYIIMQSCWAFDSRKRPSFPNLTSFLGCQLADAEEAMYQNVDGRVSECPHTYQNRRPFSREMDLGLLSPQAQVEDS
T3 sequence (P49841 whole entry): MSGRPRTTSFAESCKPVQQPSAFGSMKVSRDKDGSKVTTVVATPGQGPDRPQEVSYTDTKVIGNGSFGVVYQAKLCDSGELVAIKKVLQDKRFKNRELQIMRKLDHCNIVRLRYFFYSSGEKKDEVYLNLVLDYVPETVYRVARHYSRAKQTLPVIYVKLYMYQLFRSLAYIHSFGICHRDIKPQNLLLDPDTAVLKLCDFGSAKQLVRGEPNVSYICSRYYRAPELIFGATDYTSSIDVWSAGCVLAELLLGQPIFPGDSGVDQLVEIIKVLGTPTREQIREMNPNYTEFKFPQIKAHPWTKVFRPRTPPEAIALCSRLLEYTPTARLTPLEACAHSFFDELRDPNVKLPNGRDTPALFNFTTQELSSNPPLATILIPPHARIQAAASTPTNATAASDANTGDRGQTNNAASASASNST
T4 sequence (P35968 20-1356): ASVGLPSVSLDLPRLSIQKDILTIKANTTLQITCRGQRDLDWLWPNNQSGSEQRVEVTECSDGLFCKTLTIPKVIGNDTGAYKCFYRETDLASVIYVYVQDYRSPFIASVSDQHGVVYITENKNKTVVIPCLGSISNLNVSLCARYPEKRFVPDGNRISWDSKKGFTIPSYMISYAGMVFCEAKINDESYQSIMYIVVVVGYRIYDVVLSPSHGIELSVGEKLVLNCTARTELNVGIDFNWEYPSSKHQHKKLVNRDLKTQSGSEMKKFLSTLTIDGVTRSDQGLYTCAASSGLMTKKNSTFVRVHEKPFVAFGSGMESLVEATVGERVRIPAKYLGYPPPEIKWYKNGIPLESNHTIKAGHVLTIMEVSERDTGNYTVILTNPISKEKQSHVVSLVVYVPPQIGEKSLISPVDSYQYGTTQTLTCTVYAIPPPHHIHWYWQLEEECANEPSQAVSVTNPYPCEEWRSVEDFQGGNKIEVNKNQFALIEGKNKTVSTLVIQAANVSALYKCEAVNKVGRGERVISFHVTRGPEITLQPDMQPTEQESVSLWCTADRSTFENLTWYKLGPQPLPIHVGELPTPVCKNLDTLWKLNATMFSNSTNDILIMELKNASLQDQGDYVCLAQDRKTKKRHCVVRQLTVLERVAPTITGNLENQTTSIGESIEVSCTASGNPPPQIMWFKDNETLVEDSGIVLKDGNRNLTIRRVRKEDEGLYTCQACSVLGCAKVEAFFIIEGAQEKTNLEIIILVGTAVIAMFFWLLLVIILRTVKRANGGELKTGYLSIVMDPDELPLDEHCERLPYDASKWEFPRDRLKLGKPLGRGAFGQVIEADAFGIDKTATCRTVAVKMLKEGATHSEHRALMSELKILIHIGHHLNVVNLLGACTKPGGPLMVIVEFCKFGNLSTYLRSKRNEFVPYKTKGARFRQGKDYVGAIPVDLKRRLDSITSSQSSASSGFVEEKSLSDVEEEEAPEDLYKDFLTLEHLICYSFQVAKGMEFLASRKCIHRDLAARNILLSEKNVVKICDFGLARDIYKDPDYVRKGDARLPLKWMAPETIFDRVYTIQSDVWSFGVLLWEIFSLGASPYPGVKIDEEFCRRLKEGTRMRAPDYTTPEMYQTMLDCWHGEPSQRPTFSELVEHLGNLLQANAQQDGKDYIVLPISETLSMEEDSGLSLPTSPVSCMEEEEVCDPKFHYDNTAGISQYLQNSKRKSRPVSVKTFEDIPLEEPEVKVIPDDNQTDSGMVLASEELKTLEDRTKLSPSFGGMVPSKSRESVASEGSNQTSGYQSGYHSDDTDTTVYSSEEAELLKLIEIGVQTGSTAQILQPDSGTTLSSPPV

For the molecule `CC(=O)[C@]1(O)Cc2c(O)c3c(c(O)c2[C@@H](O[C@H]2C[C@H](N)[C@H](O)[C@H](C)O2)C1)C(=O)c1ccccc1C3=O` [NCGC00093976-08], the “VEGF_ADSC\ECFC Angio CD31 TubeArea IC50/EC50” value in assay [1] is on record as 0.0208 µM. Also, in the assay with HeLa cells, the “Hela CellCycMod PI 2N IC50/EC50” value worked out at 0.0111 µM, the “Hela CellCycMod PI S Phase IC50/EC50” value is listed as greater than 10 µM, the “Hela CellCycMod PI 4N IC50/EC50” value is given as greater than 10 µM and the “Hela CellCycMod PI MI IC50/EC50” value is recorded as 0.6593 µM. Further, in the assay on HeLa cells, the “Hela CellCycMod PI Cell Number IC50/EC50” value stood at 0.0142 µM. Besides, the “VEGF_ADSC\ECFC Angio Hoechst NucArea IC50/EC50” value in assay [2] was found to be 0.5381 µM. For the same molecule, on hFLT3, the “hFLT3 LANCE IC50/EC50” value was greater than 20 µM. At hJAK2, the “hJAK2 LANCE IC50/EC50” value is recorded as greater than 20 µM. The “WntCondMedia_bCatenin C2C12 IC50/EC50” value in assay [3] worked out at 0.1001 µM. Further, the “hGSK3b LANCE IC50/EC50” value on hGSK3b was greater than 20 µM. Besides, the “hKDR LANCE IC50/EC50” value at hKDR is greater than 20 µM. For the same molecule, the “hp70S6K1 LANCE IC50/EC50” value on hp70S6K1 (RPS6KB1) is recorded as greater than 20 µM. Further, the “WntCondMedia_Alk Phos C2C12 IC50/EC50” value in assay [4] was 0.5039 µM.

With `CCCCC1C(=O)N(c2ccccc2)N(c2ccc(O)cc2)C1=O` (stereo not drawn) [NCGC00094748-07], the “VEGF_ADSC\ECFC Angio CD31 TubeArea IC50/EC50” value in assay [1] was 3.2937 µM. In the assay with HeLa cells, the “Hela CellCycMod PI 2N IC50/EC50” value is given as greater than 10 µM, the “Hela CellCycMod PI S Phase IC50/EC50” value is recorded as greater than 10 µM, the “Hela CellCycMod PI 4N IC50/EC50” value is greater than 10 µM and the “Hela CellCycMod PI MI IC50/EC50” value is listed as greater than 10 µM. The “Hela CellCycMod PI Cell Number IC50/EC50” value in the assay with HeLa cells worked out at 1.6628 µM. Also, the “VEGF_ADSC\ECFC Angio Hoechst NucArea IC50/EC50” value in assay [2] was determined as 8.826 µM. In addition, at hFLT3, the “hFLT3 LANCE IC50/EC50” value is on record as greater than 20 µM. Further, on hJAK2, the “hJAK2 LANCE IC50/EC50” value is listed as greater than 20 µM. For the same molecule, in assay [3], the “WntCondMedia_bCatenin C2C12 IC50/EC50” value is greater than 20 µM. In addition, the “hGSK3b LANCE IC50/EC50” value on hGSK3b is recorded as greater than 20 µM. Besides, the “hKDR LANCE IC50/EC50” value at hKDR is reported as greater than 20 µM. Moreover, the “hp70S6K1 LANCE IC50/EC50” value on hp70S6K1 (RPS6KB1) is given as greater than 20 µM. Moreover, the “WntCondMedia_Alk Phos C2C12 IC50/EC50” value in assay [4] came to 4.9189 µM.

For `CCCN(CCC)C(=O)C(CCC(=O)OCCCN1CCN(CCOC(=O)Cc2c(C)n(C(=O)c3ccc(Cl)cc3)c3ccc(OC)cc23)CC1)NC(=O)c1ccccc1` (stereo not drawn) [NCGC00183024-01], in the assay on HeLa cells, the “Hela CellCycMod PI 2N IC50/EC50” value is given as greater than 10 µM, the “Hela CellCycMod PI 4N IC50/EC50” value is on record as greater than 10 µM, the “Hela CellCycMod PI MI IC50/EC50” value is reported as greater than 10 µM and the “Hela CellCycMod PI Cell Number IC50/EC50” value turned out to be 5.4844 µM. In addition, the “hFLT3 LANCE IC50/EC50” value at hFLT3 was greater than 20 µM. Moreover, the “hJAK2 LANCE IC50/EC50” value on hJAK2 is reported as greater than 20 µM. In addition, in assay [3], the “WntCondMedia_bCatenin C2C12 IC50/EC50” value is given as greater than 20 µM. For the same molecule, the “hGSK3b LANCE IC50/EC50” value on hGSK3b is greater than 20 µM. Moreover, the “hKDR LANCE IC50/EC50” value on hKDR is reported as greater than 20 µM. Further, the “hp70S6K1 LANCE IC50/EC50” value on hp70S6K1 (RPS6KB1) was greater than 20 µM. Besides, in [4], the “WntCondMedia_Alk Phos C2C12 IC50/EC50” value stood at 13.2162 µM.

As for `COC(=O)[C@H]1[C@H]2C[C@@H]3c4[nH]c5cc(OC)ccc5c4CCN3C[C@H]2C[C@@H](OC(=O)/C=C/c2ccc(O)c(OC)c2)[C@@H]1OC` [NCGC00253604-01], in the assay on HeLa cells, the “Hela CellCycMod PI 2N IC50/EC50” value was greater than 10 µM, the “Hela CellCycMod PI S Phase IC50/EC50” value was greater than 10 µM, the “Hela CellCycMod PI 4N IC50/EC50” value is on record as greater than 10 µM and the “Hela CellCycMod PI MI IC50/EC50” value was greater than 10 µM. Besides, in the assay on HeLa cells, the “Hela CellCycMod PI Cell Number IC50/EC50” value was greater than 10 µM. At hFLT3, the “hFLT3 LANCE IC50/EC50” value is on record as greater than 20 µM. Besides, on hJAK2, the “hJAK2 LANCE IC50/EC50” value was greater than 20 µM. Moreover, in assay [3], the “WntCondMedia_bCatenin C2C12 IC50/EC50” value is listed as greater than 20 µM. The “hGSK3b LANCE IC50/EC50” value on hGSK3b is greater than 20 µM. Further, the “hKDR LANCE IC50/EC50” value at hKDR is listed as greater than 20 µM. The “hp70S6K1 LANCE IC50/EC50” value at hp70S6K1 (RPS6KB1) is given as greater than 20 µM. The “WntCondMedia_Alk Phos C2C12 IC50/EC50” value in [4] amounted to 10.4461 µM.

As to `CCC1=C[C@@H]2CN(C1)Cc1c([nH]c3ccccc13)[C@@](C(=O)OC)(c1cc3c(cc1OC)N(C)[C@H]1[C@@](O)(C(=O)OC)[C@H](OC(C)=O)[C@]4(CC)C=CCN5CC[C@]31[C@@H]54)C2.O=C(O)C(O)C(O)C(=O)O.O=C(O)C(O)C(O)C(=O)O` [NCGC00263568-01], in assay [1], the “VEGF_ADSC\ECFC Angio CD31 TubeArea IC50/EC50” value is given as 0.0055 µM. In addition, in assay [2], the “VEGF_ADSC\ECFC Angio Hoechst NucArea IC50/EC50” value is listed as greater than 10 µM. In addition, on hFLT3, the “hFLT3 LANCE IC50/EC50” value is listed as greater than 20 µM. Besides, the “hJAK2 LANCE IC50/EC50” value on hJAK2 is greater than 20 µM. Moreover, the “WntCondMedia_bCatenin C2C12 IC50/EC50” value in assay [3] is 0.0089 µM. Also, the “hGSK3b LANCE IC50/EC50” value at hGSK3b was greater than 20 µM. For the same molecule, on hKDR, the “hKDR LANCE IC50/EC50” value is greater than 20 µM. In addition, the “hp70S6K1 LANCE IC50/EC50” value on hp70S6K1 (RPS6KB1) is recorded as greater than 20 µM. In assay [4], the “WntCondMedia_Alk Phos C2C12 IC50/EC50” value amounted to 0.0101 µM.

Source of the values: paper PMC4503722, “Novel Phenotypic Outcomes Identified for a Public Collection of Approved Drugs from a Publicly Accessible Panel of Assays” (PLoS ONE, 2015).
